Reference: patent USRE38330E1, “Preventing and reversing advanced glycosylation endproducts” (Alteon Inc., priority 1995, dated 2003)
Structures can show the parent of a compound that is named as a salt. Where two headings read alike, the source gives them in different places.

How the values were obtained:
[1] = target: T1, cross-linking of glycated bovine serum albumin (AGE-BSA) to the rat tail tendon collagen (Bos taurus, UniProt P02769); assay: Inhibition of cross-linking of glycated BSA (AGE-BSA) to rat tail tendon collagen coated 96-well plate (ELISA); assay type: biochemical
T1 construct: glycated bovine serum albumin (AGE-BSA); from tissue; host or cells: collagen from rat tail tendon; BSA from bovine serum, glycated in house
Method: The cross-linked AGE-BSA to the tail tendon coated plate was then quantitated by the polyclonal antibody raised against AGE-RNase.
The % inhibition of each test compound was calculated as follows.

[2] = target: T2, AGE-BSA previously crosslinked to the collagen (Bos taurus, UniProt P02769); assay: Sandwich enzyme immunoassay for breaking of AGE moieties from AGE-BSA crosslinked to collagen (AGE breaker assay); assay type: biochemical, bovine; rat; details: for IC50: AGE breaking, 16 hours 37° C.
T2 construct: Type V BSA (bovine serum albumin); purchased Calbiochem (BSA Type V); Collaborative Biomedical Products (Biocoat rat tail collagen type I plates)
Method: The present invention also involves a novel sandwich enzyme immunoassay used to ascertain the ability of test compounds to “break” or reverse already formed advanced glycosylation endproducts by detecting the breaking of AGE (Advanced glycosylation endproduct) moieties from AGE-crosslinked protein. This assay comprises:
a) incubation of AGE-modified bovine serum albumin (AGE-BSA) on collagen-coated wells of microtiter plates for a period of 2-6 hours at a temperature of 37° C.;
b) washing of the wells with PBS-Tween;
c) application of the test compounds to the washed wells of step b;
d) incubation of the test compounds applied to the washed wells for an additional 12-24 hours at a temperature of about 37° C.; and
e) detection of the AGE-breaking using an antibody raised against AGE-ribonuclease or cross-link breaking with an antibody against BSA.
In order to ascertain the ability of the compounds of the instant invention to “break” or reverse already formed advanced glycosylation endproducts, a novel sandwich enzyme immunoassay was developed which detects breaking of AGE (Advanced glycosylation endproduct) moieties from AGE-crosslinked protein. The assay utilizes collagen-coated 96 will microtiter plates that are obtained commercially. AGE-modified protein (AGE-BSA) is incubated on the collagen-coated wells for four hours, is washed off the wells with PBS-Tween and the test compounds are added. Following an incubation period of 16 hours (37° C.) AGE-breaking is detected using an antibody raised against AGE-ribonuclease or with an antibody against BSA. […] Details of the assay are as follows:
1. AGE-BSA stock solutions were prepared as follows. Sodium phosphate buffer (0.4M) was prepared by dissolving 6 grams of monobasic sodium phosphate in 100 ml of distilled water, 7 grams of dibasic sodium phosphate (0.4M) in 100 ml of distilled water and adjusting the pH of the dibasic solution to 7.4 with the monobasic solution. Sodium azide (0.02 grams) was added per 100 ml volume to inhibit bacterial growth. The BSA solution was prepared as follows: 400 mg of Type V BSA (bovine serum albumin) was added for each ml of sodium phosphate buffer (above). A 400 mM glucose solution was prepared by dissolving […] of dextrose in 100 ml of sodium phosphate buffer (above). The BSA and glucose solutions were mixed 1:1 and incubated at 37° C. for 12 weeks. The pH of the incubation mixture was monitored weekly and adjusted to pH 7.4 if necessary. After 12 weeks, the AGE-BSA solution was dialyzed against PBS for 48 hours with four buffer changes, each at a 1:500 ratio of solution to dialysis buffer. Protein concentration was determined by the micro-Lowry method. The AGE-BSA stock solution was aliquoted and stored at −20° C.
2. Working solutions for crosslinking and breaking studies were prepared as follows. Test compounds were dissolved in PBS and the pH was adjusted to pH 7.4 if necessary. AGE-BSA stock solution was diluted in PBS to measure maximum crosslinking and in the inhibitor solution for testing inhibitory activity of compounds. The concentration of AGE-BSA necessary to achieve the optimum sensitivity was determined by initial titration of each lot of AGE-BSA.
3. Wash buffer (“PBS-Tween”) was prepared as follows. PBS was prepared by dissolving the following salts in one liter of distilled water: NaCl, 8 grams; KCl, 0.2 gram, KH2PO4. […] Tween-20 was added to a final concentration of 0.05% (vol/vol).
4. Substrates for detection of secondary antibody binding were prepared by diluting the HRP substrate buffer 1:10 in distilled water and mixing with ABTS chromogen 1:50 just prior to use.
1. Biocoat plates were blocked With 300 μl of “Superbloc”. Plates were blocked for one hour at room temperature and were washed with PBS-Tween three times with the Dynatech platewasher before addition of test reagents.
2. Each experiment was set up in the following manner.

[3] = tested on: immunoglobulin trapping in the kidney; details: in vivo; cited from earlier work
red blood cells = details: in vivo; cited from earlier work
[4] = tested on: aortic wall protein cross-linking in diabetic rats; details: cited from earlier work
[5] = read-out: % Inhibition Anti-AGE (at mM)
[6] = read-out: % Inhibition Anti-BSA (at mM)
[7] = detection with anti-AGE-RNase antibody, read-out: IC50 (mM) Anti-AGE
[8] = detection with anti-BSA antibody, read-out: IC50 (mM) Anti-BSA

T1 sequence (P02769 25-607): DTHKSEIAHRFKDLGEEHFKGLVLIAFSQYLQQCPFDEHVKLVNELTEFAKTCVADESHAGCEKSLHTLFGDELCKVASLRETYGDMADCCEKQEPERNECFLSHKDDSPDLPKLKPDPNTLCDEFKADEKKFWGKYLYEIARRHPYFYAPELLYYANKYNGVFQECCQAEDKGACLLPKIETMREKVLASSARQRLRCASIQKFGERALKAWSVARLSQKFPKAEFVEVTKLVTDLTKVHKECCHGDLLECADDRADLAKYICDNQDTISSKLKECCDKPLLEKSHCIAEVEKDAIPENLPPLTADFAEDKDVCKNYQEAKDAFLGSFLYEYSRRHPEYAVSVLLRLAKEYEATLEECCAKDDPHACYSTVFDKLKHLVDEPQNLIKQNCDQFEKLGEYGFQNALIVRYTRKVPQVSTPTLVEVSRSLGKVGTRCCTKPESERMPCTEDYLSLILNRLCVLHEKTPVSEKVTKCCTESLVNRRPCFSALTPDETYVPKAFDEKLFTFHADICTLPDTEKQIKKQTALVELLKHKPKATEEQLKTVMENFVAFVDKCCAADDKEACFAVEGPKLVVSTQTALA
T2 sequence (P02769 25-607): as above
T2 sequence (P02454 152-1207 partner limits assumed): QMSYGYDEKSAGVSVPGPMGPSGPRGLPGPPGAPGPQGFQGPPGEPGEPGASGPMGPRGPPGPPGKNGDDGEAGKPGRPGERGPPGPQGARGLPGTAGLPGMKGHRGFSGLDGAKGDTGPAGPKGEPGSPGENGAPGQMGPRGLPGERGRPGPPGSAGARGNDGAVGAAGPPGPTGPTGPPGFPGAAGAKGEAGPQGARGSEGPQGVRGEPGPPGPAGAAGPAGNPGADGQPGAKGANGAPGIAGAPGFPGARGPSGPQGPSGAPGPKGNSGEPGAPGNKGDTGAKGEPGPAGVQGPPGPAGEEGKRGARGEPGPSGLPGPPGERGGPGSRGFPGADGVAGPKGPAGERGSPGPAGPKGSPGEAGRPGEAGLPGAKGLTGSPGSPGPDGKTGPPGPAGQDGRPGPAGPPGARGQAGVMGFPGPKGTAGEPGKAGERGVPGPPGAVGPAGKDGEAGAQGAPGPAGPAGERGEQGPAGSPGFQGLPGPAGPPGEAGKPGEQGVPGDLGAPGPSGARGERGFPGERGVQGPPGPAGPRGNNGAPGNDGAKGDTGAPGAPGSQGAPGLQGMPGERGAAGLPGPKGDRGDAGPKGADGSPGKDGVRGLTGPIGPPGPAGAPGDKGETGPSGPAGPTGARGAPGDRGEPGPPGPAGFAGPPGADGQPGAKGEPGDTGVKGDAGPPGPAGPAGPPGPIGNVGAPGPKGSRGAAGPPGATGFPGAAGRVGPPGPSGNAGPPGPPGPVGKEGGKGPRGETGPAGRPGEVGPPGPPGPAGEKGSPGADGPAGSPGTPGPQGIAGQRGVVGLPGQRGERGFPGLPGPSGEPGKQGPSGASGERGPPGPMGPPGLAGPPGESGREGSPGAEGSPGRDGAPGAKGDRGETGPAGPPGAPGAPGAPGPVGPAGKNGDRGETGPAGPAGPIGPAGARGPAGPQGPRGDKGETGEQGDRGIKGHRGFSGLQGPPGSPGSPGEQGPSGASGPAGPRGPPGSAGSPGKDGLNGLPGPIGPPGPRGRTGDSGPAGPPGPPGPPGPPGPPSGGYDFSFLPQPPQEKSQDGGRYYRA
T2 sequence (P02466 86-1125 partner limits assumed): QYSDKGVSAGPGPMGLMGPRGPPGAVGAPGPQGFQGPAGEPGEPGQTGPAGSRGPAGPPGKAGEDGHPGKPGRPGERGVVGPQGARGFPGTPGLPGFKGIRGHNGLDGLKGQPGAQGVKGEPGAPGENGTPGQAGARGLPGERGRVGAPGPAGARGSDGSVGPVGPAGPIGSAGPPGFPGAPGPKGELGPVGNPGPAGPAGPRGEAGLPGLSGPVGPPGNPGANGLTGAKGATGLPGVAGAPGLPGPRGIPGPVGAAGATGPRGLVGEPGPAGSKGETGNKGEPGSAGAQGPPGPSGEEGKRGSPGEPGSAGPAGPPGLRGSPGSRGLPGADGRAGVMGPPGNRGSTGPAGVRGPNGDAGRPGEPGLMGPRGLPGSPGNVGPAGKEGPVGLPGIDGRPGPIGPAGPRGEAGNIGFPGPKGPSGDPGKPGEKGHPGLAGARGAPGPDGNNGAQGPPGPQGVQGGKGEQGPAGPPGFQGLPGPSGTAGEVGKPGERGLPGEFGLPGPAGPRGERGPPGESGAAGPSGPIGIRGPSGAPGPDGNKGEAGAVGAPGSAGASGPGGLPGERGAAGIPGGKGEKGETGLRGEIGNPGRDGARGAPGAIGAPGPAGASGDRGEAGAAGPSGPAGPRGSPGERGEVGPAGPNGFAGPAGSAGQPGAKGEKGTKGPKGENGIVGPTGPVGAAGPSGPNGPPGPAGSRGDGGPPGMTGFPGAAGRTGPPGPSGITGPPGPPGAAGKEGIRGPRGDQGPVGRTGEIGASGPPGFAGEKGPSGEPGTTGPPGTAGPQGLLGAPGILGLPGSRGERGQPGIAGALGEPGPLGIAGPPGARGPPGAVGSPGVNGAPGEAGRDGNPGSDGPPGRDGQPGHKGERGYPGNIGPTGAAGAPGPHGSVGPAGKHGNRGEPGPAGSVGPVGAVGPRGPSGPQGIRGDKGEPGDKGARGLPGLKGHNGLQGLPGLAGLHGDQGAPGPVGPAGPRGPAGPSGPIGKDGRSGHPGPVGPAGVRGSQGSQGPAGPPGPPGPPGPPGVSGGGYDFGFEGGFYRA

Compound `CC[n+]1csc(CCO)c1C.[Br-]` has a melting point of 84 to 85 °C.

For `O=C(C[n+]1csc2ccccc21)c1ccccc1.[Br-]`, the melting point was 240 to 241 °C (dec.).

`COC(=O)C[n+]1csc(CCOC(C)=O)c1C.[Br-]` gave a melting point of 217 to 218 °C.

`CC(=O)OCCc1sc[n+](CC(N)=O)c1C.[Br-]` gave a melting point of 233 to 234 °C.

For `COC(=O)C[n+]1ccsc1N.[Br-]`, the melting point was 191 to 192 °C.

For `COC(=O)C[n+]1c(N)sc2ccccc21.[Br-]`, the melting point was 236 to 237 °C.

Compound `NC(=O)C[n+]1ccsc1N.[Br-]` has a melting point of 209 to 210 °C.

Compound `NC(=O)C[n+]1c(N)sc2ccccc21.[Br-]` has a melting point of 234 to 235 °C.

In the case of `Cc1c(CCO)sc[n+]1CC(=O)c1ccc(Br)cc1` (as salt: bromide) [3-(2-[4^1-bromophenyl]-2-oxoethyl)-4-methyl-5-(2-hydroxyethyl)thiazolium bromide], the melting point is reported as 251 to 252 °C (dec.).

In the case of `Nc1sc2ccccc2[n+]1N` [2,3-diamino-benzothiazolium mesitylenesulfonate], the melting point is reported as 212 to 214 °C (dec.), the IC50 [1] is reported as 74.9 µM and the inhibition at 30000 µM ([2]; at 30 mM, detection with anti-AGE-RNase antibody, read-out: % Inhibition Anti-AGE (at mM)) is reported as 75%. It also gave an inhibition at 30000 µM ([2]; at 30 mM, detection with anti-BSA antibody, read-out: % Inhibition Anti-BSA (at mM)) of 35%.

`COC(=O)C[n+]1ccsc1` [3-(2-Methoxy-2-oxoethyl)thiazolium bromide] gave an IC50 [1] of 138 µM, an inhibition at 30000 µM [2, 5] of 38% and an inhibition at 30000 µM [2, 6] of 41%.

For `Cc1sc[n+](CC(=O)c2ccc(Br)cc2)c1C` [3-(2-[4^1-bromophenyl]-2-oxoethyl)-4,5-dimethylthiazolium bromide], the IC50 [1] was 2920 µM.

With `Cc1c(CCO)sc[n+]1CC(=O)c1ccc(Br)cc1` [3-(2-[4^1-bromophenyl]-2-oxoethyl)-4-methyl-5-(2-hydroxyethyl)thiazolium bromide] the IC50 [1] was 4510 µM.

With `O=C(C[n+]1ccsc1)c1ccc(Br)cc1.[Br-]` [3-(2-[4^1-bromophenyl]-2-oxoethyl)-thiazolium bromide] the “% Inhibition Anti-AGE (at mM)” value ([2]; at 30 mM, detection with anti-AGE-RNase antibody) was 76% and the “% Inhibition Anti-BSA (at mM)” value ([2]; at 30 mM, detection with anti-BSA antibody) was 25%.

Work on `Cc1sc[n+](CC(N)=O)c1C.[Br-]` [3-(2-amino-2-oxoethyl)-4,5-dimethyl-thiazolium bromide] yielded a melting point of 147 to 148 °C, an IC50 [1] of 338 µM and an inhibition at 30000 µM [2, 5] of 69%. It also gave an inhibition at 30000 µM [2, 6] of 75%.

With `Cc1c(CCO)sc[n+]1CC(N)=O` [3-(2-amino-2-oxoethyl)-4-methyl-5-(2-hydroxyethyl)thiazolium bromide] the IC50 [1] was 1260 µM, the IC50 [2, 7] was 12 µM and the IC50 [2, 8] was 120 µM.

Compound `Cc1csc[n+]1CC(N)=O` [3-(2-amino-2-oxoethyl)-4-methyl-thiazolium bromide] has an IC50 [1] of 116 µM, an IC50 [2, 7] of 4700 µM and an IC50 [2, 8] of 38600 µM.

`Cc1c[n+](CC(N)=O)cs1.[Br-]` [3-(2-amino-2-oxoethyl)-5-methyl-thiazolium bromide] gave a melting point of 179 to 180 °C and an IC50 [1] of 28.9 µM.

In the case of `NC(=O)C[n+]1csc2ccccc21.[Br-]` [3-(2-amino-2-oxoethyl)-benzothiazolium bromide], the melting point is reported as 222 to 223 °C, the IC50 [1] is reported as 618 µM and the IC50 [2, 7] is reported as 140 µM. It also gave an IC50 [2, 8] of 520 µM.

For `NC(=O)C[n+]1ccsc1.[Br-]` [3-(2-amino-2-oxoethyl)thiazolium bromide, 3-(2-amino-2-oxoethyl)-thiazolium bromide], the melting point was 205 to 206 °C and the IC50 [1] was 226 µM.

`COC(=O)C[n+]1csc(C)c1C` [3-(2-methoxy-2-oxoethyl)-4,5-dimethylthiazolium bromide] showed an IC50 [1] of 138 µM, an inhibition at 30000 µM [2, 5] of 50% and an inhibition at 30000 µM [2, 6] of 30%.

`COC(=O)C[n+]1csc(CCO)c1C.[Br-]` [3-(2-methoxy-2-oxoethyl)-4-methyl-5-(2-hydroxyethyl)-thiazolium bromide] showed a melting point of 137 to 138 °C.

In the case of `COC(=O)C[n+]1cscc1C.[Br-]` [3-(2-methoxy-2-oxoethyl)-4-methylthiazolium bromide], the melting point is reported as 149 to 151 °C (dec.), the inhibition at 30000 µM [2, 5] is reported as 54% and the inhibition at 30000 µM [2, 6] is reported as 41%.

With `COC(=O)C[n+]1csc(C)c1.[Br-]` [3-(2-methoxy-2-oxoethyl)-5-methyl-thiazolium bromide] the melting point was 193 to 194 °C (dec.), the IC50 [1] was 73 µM and the inhibition at 30000 µM [2, 5] was 72%. It also gave an inhibition at 30000 µM [2, 6] of 27%.

For `COC(=O)C[n+]1csc2ccccc21` [3-(2-methoxy-2-oxoethyl)-benzothiazolium bromide], the IC50 [2, 7] was 1200 µM and the IC50 [2, 8] was 25900 µM.

With `CC(=O)C[n+]1ccsc1.[Cl-]` [3-(2-methyl-2-oxoethyl)thiazolium chloride] the melting point was 178 to 179 °C, the IC50 ([2]; IC50 (mM) Anti-AGE, detection with anti-AGE-RNase antibody) was 0.036 µM and the IC50 ([2]; IC50 (mM) Anti-BSA, detection with anti-BSA antibody) was 260 µM.

`Cc1sc[n+](CC(=O)c2ccccc2)c1C` [3-(2-phenyl-2-oxoethyl)-4,5-dimethylthiazolium bromide] gave an IC50 [1] of 48500 µM and an inhibition at 30000 µM [2, 5] of 56%.

For `Cc1c(CCO)sc[n+]1CC(=O)c1ccccc1` [3-(2-phenyl-2-oxoethyl)-4-methyl-5-(2-hydroxyethyl)-thiazolium bromide], the IC50 [2, 7] was 14300 µM.

In the case of `Cc1csc[n+]1CC(=O)c1ccccc1.[Br-]` [3-(2-phenyl-2-oxoethyl)-4-methylthiazolium bromide], the melting point is reported as 218 to 220 °C (dec.), the IC50 [1] is reported as 10300 µM and the IC50 [2, 7] is reported as 230 µM. For the same compound, the IC50 [2, 8] was 300 µM.

`Cc1c[n+](CC(=O)c2ccccc2)cs1` [3-(2-phenyl-2-oxoethyl)-5-methyl-thiazolium bromide] showed an IC50 [1] of 13900 µM.

Compound `O=C(C[n+]1ccsc1)c1ccccc1` [3-(2-phenyl-2-oxoethyl)thiazolium bromide] has an IC50 [2, 7] of 20 µM and an IC50 [2, 8] of 14 µM.

For `O=C(O)C[n+]1csc2ccccc21.[Br-]` [3-(carboxymethyl)benzothiazolium bromide, 3-(carboxymethyl)-benzothiazolium bromide], the melting point was 250 °C (dec.), the inhibition at 30000 µM [2, 5] was 63.7% and the inhibition at 30000 µM [2, 6] was 17.9%.

`Cc1c(CCO)sc[n+]1Cc1ccccc1.[Cl-]` [3-benzyl-5-(2-hydroxyethyl)-4-methyl thiazolium chloride] showed a melting point of 144 to 146 °C, an IC50 [2, 7] of 420 µM and an IC50 [2, 8] of 550 µM.

For `N=C(N)NN` [aminoguanidine], the “immunoglobulin trapping in the kidney” value [3] is listed as “reduction of immunoglobulin trapping in the kidney”, the “diabetes-induced changes in the deformability of red blood cells” value (red blood cells) is listed as “has been shown to prevent it in vivo” and the “aortic wall protein cross-linking” value [4] is listed as “diminishes aortic wall protein cross-linking”.
